Reference: patent US20110288036A1, “Methods for Treating or Preventing Vascular Graft Failure” (priority 2010, published 2011)

Tests used:
MKK3 = MKK3 (Homo sapiens, UniProt P46734); experiment: MKK3 kinase activity (data not shown); type: biochemical; conditions: at concentration inhibiting greater than 95% of MK2 activity
Excerpt: (§1) A commercial radiometric assay service was used to test the specificity and potency of MMI-0100 ([…]; SEQ ID NO: 1) by measuring its half maximal inhibitory concentrations (IC50). This quantitative assay measures how much MK2 inhibitor (MMI-0100; […] (SEQ ID NO: 1)) is needed to inhibit 50% of a given biological process or component of a process (i.e., an enzyme, cell, or cell receptor). Specifically, in these assays, a positively charged substrate is phosphorylated with a radiolabeled phosphate group from an ATP if the kinase is not inhibited by an inhibitor peptide. The positively charged substrate then is attracted to a negatively charged filter membrane, quantified with a scintillation counter, and compared to a 100% activity control. ATP concentrations within 15 μM of the apparent Km for ATP were chosen since an ATP concentration near the Km may allow for the kinases to have the same relative amount of phosphorylation activity. […]
(§2) IC50 values for inhibitor peptides were determined using Millipore's IC50 Profiler Express service. […]
In order to determine the level of specificity for inhibiting MK2, the effect of MMI-0100 ([…]; SEQ ID NO: 1) on other kinases within the MAPK family and within the p38MAPK pathway was evaluated at concentrations of MMI-0100 ([…]; SEQ ID NO: 1) that inhibit greater than 95% of MK2 activity in vitro. […]

PRAK = molecular target: T1, PRAK (Homo sapiens, UniProt Q8IW41); experiment: PRAK radiometric kinase assay; type: biochemical; conditions: peptide 100 μM
T1 construct: purchased Millipore (KinaseProfiler service)
Excerpt: as §1, with “activity. The individual conditions for each radiometric assay are as follows.” for “activity.”
as §2

[1] = tested on: mouse lung endothelial cells (MLEC); experiment: MCP-1 immunoassay of MLEC conditioned medium; type: cell-based; conditions: even at high doses
Experimental: Monocyte Chemotractic Protein-1 (MCP-1) production from mouse lung endothelial cells (MLEC) was analyzed using conditioned culture medium by Quantikine® Mouse CCL/JE/MCP-1 Immunoassay (R&D Systems) following the manufacturer's instructions. Briefly, the assay employs a quantitative sandwich enzyme immunoassay technique in which a monoclonal antibody specific for MCP-1 has been pre-coated onto a microplaste. Standards and samples are pipetted into the wells and any MCP-1 present is bound by the immobilized antibody. After washing away any unbound substances, an enzyme-linked polyclonal antibody specific for MCP-1 is added to the wells. Following a wash to remove any unbound antibody-enzyme reagent, a substrate solution is added to the wells and color develops in proportion to the amount of MCP-1 bound in the initial step. The color development is stopped and the intensity of the color is measured at 450 nm, with wavelength correction at 540 nm or 570 nm.

MEK1 = molecular target: T2, MEK1 (Homo sapiens, UniProt Q02750); experiment: MEK1 radiometric kinase assay; type: biochemical; conditions: peptide 100 μM
T2 construct: purchased Millipore (KinaseProfiler service)
Excerpt: A commercial radiometric assay service was used to test the specificity and potency of MMI-0100 ([…]; SEQ ID NO: 1) by measuring its half maximal inhibitory concentrations (IC50). This quantitative assay measures how much MK2 inhibitor (MMI-0100; […] (SEQ ID NO: 1)) is needed to inhibit 50% of a given biological process or component of a process (i.e., an enzyme, cell, or cell receptor). Specifically, in these assays, a positively charged substrate is phosphorylated with a radiolabeled phosphate group from an ATP if the kinase is not inhibited by an inhibitor peptide. The positively charged substrate then is attracted to a negatively charged filter membrane, quantified with a scintillation counter, and compared to a 100% activity control. ATP concentrations within 15 μM of the apparent Km for ATP were chosen since an ATP concentration near the Km may allow for the kinases to have the same relative amount of phosphorylation activity. The individual conditions for each radiometric assay are as follows.
The reaction was initiated by adding the MgATP. After incubation for 40 minutes at room temperature, 5 μl of this incubation mix was used to initiate the MAPK2 radiometric assay whose reaction condition was the same as the condition for p38 MAPK assay described above.
as §2

[2] = tested on: human smooth muscle cell (SMC); experiment: MTS cell proliferation assay, smooth muscle cells; type: cell-based; conditions: pre-treatment 20 ng/ml TNF-α
Experimental: Primary human aortic endothelial cells (HAEC) and primary human aortic smooth muscle cells (HASMC) were obtained from Invitrogen; primary human coronary artery endothelial cells (HCAEC) were obtained from Lonza.
All cultures were maintained in 25 cm^2 polystyrene tissue culture flasks in a 37° C., 5% CO2/95% air environment, with cell culture media refreshed every other day. All cells were seeded at a density of 20,000˜30,000 cells/cm^2, as required by the specific experiment, and allowed to grow to 80-90% confluence before being harvested/passaged. Only cells from early passages (numbers 2-8) were utilized in experiments.
The CellTiter 96® AQueous Non-Radioactive Cell Proliferation Assay (Promega) was used to assess drug effects on cell proliferation according to the manufacturer's instructions. Briefly, HAECs and HASMCs from early passages were grown to 80-90% confluence in 25 cm^2 tissue culture flasks in a 37° C./5% CO2 incubator prior to harvest. 200 μl of each type of cell suspension (at 20,000 cells/cm^2) was seeded onto separate 96-well plates to yield an approximate 60% confluence per well. Cells were allowed to adhere to the plate surface overnight, followed by addition of 20 ng/ml of TNF-α to stimulate production of inflammatory agents. After a 4-6 hour incubation period, MMI-0100 peptide drug ([…]; SEQ ID NO: 1) was added and cells incubated for another 20-24 hours. Each well was then supplemented with 100 μl of fresh medium and 20 μl of CellTiter 96® AQueous One Solution Reagent and incubated for an additional 1.5-2 hours prior to measuring absorbance of each well at 490 nm with a SoftMax®-equipped plate reader.
In order to determine the effect of pharmacological doses of MMI-0100 ([…]; SEQ ID NO: 1) on human endothelial cell (EC) and smooth muscle cell (SMC) proliferation, human EC and SMC cultures were treated with three concentrations (0.25 mM, 0.5 mM, and 1 mM) of MMI-0100 ([…] (SEQ ID NO: 1)) following pre-treatment with TNF-α.

T1 sequence (Q8IW41 whole entry, species assumed): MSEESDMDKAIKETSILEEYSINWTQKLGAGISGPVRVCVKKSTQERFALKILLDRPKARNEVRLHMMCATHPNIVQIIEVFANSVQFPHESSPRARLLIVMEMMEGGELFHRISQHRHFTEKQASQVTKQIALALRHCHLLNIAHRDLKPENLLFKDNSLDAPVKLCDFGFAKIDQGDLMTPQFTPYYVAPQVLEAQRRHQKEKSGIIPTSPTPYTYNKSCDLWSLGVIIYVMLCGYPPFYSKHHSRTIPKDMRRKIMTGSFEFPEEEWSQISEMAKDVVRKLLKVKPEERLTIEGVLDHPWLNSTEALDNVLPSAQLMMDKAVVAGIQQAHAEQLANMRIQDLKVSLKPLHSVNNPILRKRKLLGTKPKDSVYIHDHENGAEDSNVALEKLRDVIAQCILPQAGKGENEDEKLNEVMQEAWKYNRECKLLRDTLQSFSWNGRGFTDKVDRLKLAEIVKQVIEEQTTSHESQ
MKK3, sequence (P46734 whole entry, species assumed): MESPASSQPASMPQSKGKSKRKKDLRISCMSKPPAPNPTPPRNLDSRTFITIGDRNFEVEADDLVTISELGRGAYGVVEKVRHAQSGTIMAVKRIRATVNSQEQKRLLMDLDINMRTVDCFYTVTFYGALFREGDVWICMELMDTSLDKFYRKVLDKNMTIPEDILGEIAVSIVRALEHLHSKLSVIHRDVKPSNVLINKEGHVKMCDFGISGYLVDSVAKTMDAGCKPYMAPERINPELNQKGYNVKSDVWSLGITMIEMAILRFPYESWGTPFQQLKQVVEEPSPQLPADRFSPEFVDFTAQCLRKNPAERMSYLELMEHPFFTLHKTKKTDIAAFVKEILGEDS

For YARAAARQARAKALARQLGVAA [MMI-0100], the MKK3 activity (MKK3) was “no reduction”, the “Percent Activity, PRAK” value (PRAK) was 100% and the MCP-1 production [1] was “did not stimulate MCP-1 production, even at high doses”. For the same sequence, the “Percent Activity, MEK1” value (MEK1) was 68%, the “SMC proliferation vs TNF-α alone control” value ([2]; 0.25 mM) was “slightly increased cell proliferation” and the “increase in SMC proliferation vs TNF-α alone control” value ([2]; 0.5 mM) was 12%. The “increase in SMC proliferation vs TNF-α alone control” value ([2]; 1 mM) was 7%.
